From PubChem BioAssay (NCI)
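How tested: cells in 96-well plates exposed to compound for 48 hours at five concentrations. TGI is the concentration that stops growth completely.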

The compounds below were run on MCF7 breast (assay: DTP human tumour cell line panel, 48 h).
`C=C1C(=O)O[C@H]2C1C[C@H](O)[C@@]1(C)OC1CC[C@@]1(C)O[C@H]21` (some centres undefined) gave a TGI of 29.5 µM. `O=C(NCCNCCNC(=O)c1cc(-c2ccccc2)nc2ccccc12)c1cc(-c2ccccc2)nc2ccccc12` was tested, and the TGI was 3.96 µM. `CC1=NN(c2nc(N)nc(/C(C#N)=C\c3ccc(-c4ccc([N+](=O)[O-])cc4)o3)n2)C(C)(C)C1` was tested, and the TGI was greater than 100 µM. Compound `CCOC(=O)c1nc2ccc(C(F)(F)F)cc2nc1Nc1ccc(OC)cc1` has a TGI greater than 100 µM. `COc1ccc2nc3ccc(OC)cc3c(SCCCl)c2c1` was tested, and the TGI was greater than 47 µM. `CCOC(=O)C(=CNc1ccc(F)c(F)c1)C(=O)OCC` was tested, and the TGI was greater than 100 µM. With `CC(Oc1ccccc1Cl)C(=O)NN1C(=O)CC(=O)N(c2ccc(Cl)cc2)C1=S` (centres undefined) the TGI was greater than 100 µM. For `CC(C)(O)c1cc2c(cc1C(C)(C)O)-c1ccccc1-2`, the TGI was greater than 100 µM. `CC(C)[Si]1(C(C)C)OCC2OC(n3ccc(=O)[nH]c3=O)C([Se]c3ccccc3)C2O[Si](C(C)C)(C(C)C)O1` (centres undefined) showed a TGI of 8.27 µM. In the case of `CN(N=O)c1nc2c(C(N)=O)ncn2s1`, the TGI was greater than 100 µM. Work on `CC(Oc1ccc(Cl)cc1Cl)C(=O)NN1C(=O)CC(=O)N(c2ccccc2)C1=S` (centres undefined) yielded a TGI greater than 100 µM. `CC(C)(C)OC(=O)N1CCCC1C(=O)NC(c1ccccc1)c1ccccc1` (centres undefined) showed a TGI greater than 100 µM. With `Cc1[nH]c(-c2ccccc2)c2nc(N(C)C)oc(=O)c12` the TGI was greater than 100 µM. Compound `O=C1Cc2cn[nH]c2-c2ccccc2N1` has a TGI greater than 100 µM. For `O=CNc1ccccc1OCCOc1ccccc1NC=O`, the TGI was greater than 100 µM. Compound `CCOC(=O)c1c[nH]c(C(=O)C=[N+]=[N-])c1C1CCN(CC)C1=S` (centres undefined) has a TGI greater than 100 µM. For `Cc1ccc2nc(NS(=O)(=O)c3cc(C)c(Cl)cc3S)[nH]c2c1`, the TGI was greater than 100 µM. Compound `O=C1CSC(c2ccccc2O)N1c1ccc(-n2c(-c3ccccc3)nc3ccccc3c2=O)cc1` (centres undefined) has a TGI greater than 100 µM. Work on `Cc1ccc(C(=O)Oc2ccccc2)cc1N=NN(C)C` yielded a TGI greater than 100 µM. In the case of `O=C1NC2(CCNCC2)Oc2ccccc21`, the TGI was greater than 100 µM. Work on `O=[N+]([O-])c1cccc2nccc(NCCN3CCOCC3)c12` yielded a TGI of 25.5 µM. With `O=C1NC(N/N=C\c2ccccc2)=N/C1=C/c1ccccc1` the TGI was greater than 100 µM. In the case of `Cc1ccc(S(=O)(=O)N2CCNCCN(S(=O)(=O)c3ccc(C)cc3)CCNCC2)cc1`, the TGI was 53.8 µM. In the case of `CN=c1sc2nc(C#N)c(C#N)nc2n1C`, the TGI was 38.1 µM.

Each compound was assayed on NCI-H460 lung (assay: DTP human tumour cell line panel, 48 h).
`C=C1C(=O)O[C@H]2C1C[C@H](O)[C@@]1(C)OC1CC[C@@]1(C)O[C@H]21` (some centres undefined) was tested, and the TGI was greater than 100 µM. `O=C(NCCNCCNC(=O)c1cc(-c2ccccc2)nc2ccccc12)c1cc(-c2ccccc2)nc2ccccc12` was tested, and the TGI was 2.97 µM. `CC1=NN(c2nc(N)nc(/C(C#N)=C\c3ccc(-c4ccc([N+](=O)[O-])cc4)o3)n2)C(C)(C)C1` showed a TGI greater than 100 µM. `CCOC(=O)c1nc2ccc(C(F)(F)F)cc2nc1Nc1ccc(OC)cc1` gave a TGI greater than 100 µM. `COc1ccc2nc3ccc(OC)cc3c(SCCCl)c2c1` was tested, and the TGI was greater than 100 µM. Compound `CCOC(=O)C(=CNc1ccc(F)c(F)c1)C(=O)OCC` has a TGI greater than 100 µM. `CC(Oc1ccccc1Cl)C(=O)NN1C(=O)CC(=O)N(c2ccc(Cl)cc2)C1=S` (centres undefined) gave a TGI greater than 100 µM. For `CC(C)(O)c1cc2c(cc1C(C)(C)O)-c1ccccc1-2`, the TGI was greater than 100 µM. For `CC(C)[Si]1(C(C)C)OCC2OC(n3ccc(=O)[nH]c3=O)C([Se]c3ccccc3)C2O[Si](C(C)C)(C(C)C)O1` (centres undefined), the TGI was 3.89 µM. With `CN(N=O)c1nc2c(C(N)=O)ncn2s1` the TGI was greater than 100 µM. For `CC(Oc1ccc(Cl)cc1Cl)C(=O)NN1C(=O)CC(=O)N(c2ccccc2)C1=S` (centres undefined), the TGI was greater than 100 µM. `CC(C)(C)OC(=O)N1CCCC1C(=O)NC(c1ccccc1)c1ccccc1` (centres undefined) was tested, and the TGI was greater than 100 µM. `Cc1[nH]c(-c2ccccc2)c2nc(N(C)C)oc(=O)c12` gave a TGI greater than 100 µM. `O=C1Cc2cn[nH]c2-c2ccccc2N1` was tested, and the TGI was greater than 69.8 µM. `O=CNc1ccccc1OCCOc1ccccc1NC=O` gave a TGI greater than 100 µM. `CCOC(=O)c1c[nH]c(C(=O)C=[N+]=[N-])c1C1CCN(CC)C1=S` (centres undefined) was tested, and the TGI was greater than 100 µM. `Cc1ccc2nc(NS(=O)(=O)c3cc(C)c(Cl)cc3S)[nH]c2c1` showed a TGI of 38.6 µM. For `O=C1CSC(c2ccccc2O)N1c1ccc(-n2c(-c3ccccc3)nc3ccccc3c2=O)cc1` (centres undefined), the TGI was 50.8 µM. `Cc1ccc(C(=O)Oc2ccccc2)cc1N=NN(C)C` gave a TGI greater than 100 µM. In the case of `O=C1NC2(CCNCC2)Oc2ccccc21`, the TGI was greater than 100 µM. `O=[N+]([O-])c1cccc2nccc(NCCN3CCOCC3)c12` gave a TGI of 32.5 µM. In the case of `O=C1NC(N/N=C\c2ccccc2)=N/C1=C/c1ccccc1`, the TGI was greater than 100 µM. Compound `Cc1ccc(S(=O)(=O)N2CCNCCN(S(=O)(=O)c3ccc(C)cc3)CCNCC2)cc1` has a TGI of 36.8 µM. In the case of `CN=c1sc2nc(C#N)c(C#N)nc2n1C`, the TGI was 35.7 µM.

These compounds were tested on T-47D breast (assay: DTP human tumour cell line panel, 48 h).
In the case of `C=C1C(=O)O[C@H]2C1C[C@H](O)[C@@]1(C)OC1CC[C@@]1(C)O[C@H]21` (some centres undefined), the TGI was 36.4 µM. Work on `O=C(NCCNCCNC(=O)c1cc(-c2ccccc2)nc2ccccc12)c1cc(-c2ccccc2)nc2ccccc12` yielded a TGI of 7.62 µM. Work on `CC1=NN(c2nc(N)nc(/C(C#N)=C\c3ccc(-c4ccc([N+](=O)[O-])cc4)o3)n2)C(C)(C)C1` yielded a TGI greater than 100 µM. `CCOC(=O)c1nc2ccc(C(F)(F)F)cc2nc1Nc1ccc(OC)cc1` was tested, and the TGI was greater than 100 µM. With `COc1ccc2nc3ccc(OC)cc3c(SCCCl)c2c1` the TGI was greater than 97.2 µM. In the case of `CCOC(=O)C(=CNc1ccc(F)c(F)c1)C(=O)OCC`, the TGI was greater than 100 µM. `CC(Oc1ccccc1Cl)C(=O)NN1C(=O)CC(=O)N(c2ccc(Cl)cc2)C1=S` (centres undefined) was tested, and the TGI was greater than 100 µM. With `CC(C)(O)c1cc2c(cc1C(C)(C)O)-c1ccccc1-2` the TGI was greater than 100 µM. `CC(C)[Si]1(C(C)C)OCC2OC(n3ccc(=O)[nH]c3=O)C([Se]c3ccccc3)C2O[Si](C(C)C)(C(C)C)O1` (centres undefined) was tested, and the TGI was 19.9 µM. Compound `CN(N=O)c1nc2c(C(N)=O)ncn2s1` has a TGI greater than 100 µM. With `CC(Oc1ccc(Cl)cc1Cl)C(=O)NN1C(=O)CC(=O)N(c2ccccc2)C1=S` (centres undefined) the TGI was greater than 100 µM.
